Results from patent publication US8344025B2, “Oxalic acid derivatives and use thereof as physiological cooling active ingredients” (Symrise AG, priority 2007, dated 2013).

System: panel of experts
Test: Organoleptic test of cooling action in confectioner's fondant, rated by a panel of experts
Assay type: in vivo
Details: scale from 1 (no cooling action) to 9 (extremely strong cooling action), 0.05 wt. % relative to the complete preparation
Procedure: The compounds according to Examples 1 to 12 were tested for their organoleptic properties, in particular their cooling action. To this end, they were dissolved, in each case in a specific final concentration, in a mass prepared from sucrose (saccharose) and water (confectioner's fondant, supplier Nordzucker AG, Nordstemmen) and evaluated by a panel of experts. Sensory impressions were rated and the cooling action was assessed on a scale from 1 (no cooling action) to 9 (extremely strong cooling action). The results were convincing in every case.

CNC(=O)C(=O)O[C@@H]1C[C@H](C)CC[C@H]1C(C)C [Example 2, L-menthyl N-methyl oxamate]
cooling action: 6
